# Assay results from ChEMBL document CHEMBL4028801, “A multifactorial approach to hepatobiliary transporter assessment enables improved therapeutic compound development” (Toxicol Sci, 2013).
# Structures can show the parent of a compound that is named as a salt.
# Assays:
# [1] = biological target: ATP-binding cassette sub-family C member 2 (Homo sapiens, UniProt Q92887); assay: Inhibition of human MRP2 overexpressed in Sf9 cell membrane vesicles assessed as uptake of [3H]-estradiol-17beta-D-glucuronide in presence of ATP and GSH measured after 20 mins by membrane vesicle transport assay
# [2] = biological target: ATP-binding cassette sub-family C member 3 (Homo sapiens, UniProt O15438); assay: Inhibition of human MRP3 overexpressed in Sf9 insect cell membrane vesicles assessed as uptake of [3H]-estradiol-17beta-D-glucuronide in presence of ATP and GSH measured after 10 mins by membrane vesicle transport assay; assay type: ADME, cell-based
# [3] = biological target: T1, ATP-binding cassette sub-family C member 4 (Homo sapiens, UniProt O15439); assay: Inhibition of human MRP4 overexpressed in Sf9 cell membrane vesicles assessed as uptake of [3H]-estradiol-17beta-D-glucuronide in presence of ATP and GSH measured after 20 mins by membrane vesicle transport assay; assay type: ADME, cell-based
# T1 sequence (O15439 whole entry): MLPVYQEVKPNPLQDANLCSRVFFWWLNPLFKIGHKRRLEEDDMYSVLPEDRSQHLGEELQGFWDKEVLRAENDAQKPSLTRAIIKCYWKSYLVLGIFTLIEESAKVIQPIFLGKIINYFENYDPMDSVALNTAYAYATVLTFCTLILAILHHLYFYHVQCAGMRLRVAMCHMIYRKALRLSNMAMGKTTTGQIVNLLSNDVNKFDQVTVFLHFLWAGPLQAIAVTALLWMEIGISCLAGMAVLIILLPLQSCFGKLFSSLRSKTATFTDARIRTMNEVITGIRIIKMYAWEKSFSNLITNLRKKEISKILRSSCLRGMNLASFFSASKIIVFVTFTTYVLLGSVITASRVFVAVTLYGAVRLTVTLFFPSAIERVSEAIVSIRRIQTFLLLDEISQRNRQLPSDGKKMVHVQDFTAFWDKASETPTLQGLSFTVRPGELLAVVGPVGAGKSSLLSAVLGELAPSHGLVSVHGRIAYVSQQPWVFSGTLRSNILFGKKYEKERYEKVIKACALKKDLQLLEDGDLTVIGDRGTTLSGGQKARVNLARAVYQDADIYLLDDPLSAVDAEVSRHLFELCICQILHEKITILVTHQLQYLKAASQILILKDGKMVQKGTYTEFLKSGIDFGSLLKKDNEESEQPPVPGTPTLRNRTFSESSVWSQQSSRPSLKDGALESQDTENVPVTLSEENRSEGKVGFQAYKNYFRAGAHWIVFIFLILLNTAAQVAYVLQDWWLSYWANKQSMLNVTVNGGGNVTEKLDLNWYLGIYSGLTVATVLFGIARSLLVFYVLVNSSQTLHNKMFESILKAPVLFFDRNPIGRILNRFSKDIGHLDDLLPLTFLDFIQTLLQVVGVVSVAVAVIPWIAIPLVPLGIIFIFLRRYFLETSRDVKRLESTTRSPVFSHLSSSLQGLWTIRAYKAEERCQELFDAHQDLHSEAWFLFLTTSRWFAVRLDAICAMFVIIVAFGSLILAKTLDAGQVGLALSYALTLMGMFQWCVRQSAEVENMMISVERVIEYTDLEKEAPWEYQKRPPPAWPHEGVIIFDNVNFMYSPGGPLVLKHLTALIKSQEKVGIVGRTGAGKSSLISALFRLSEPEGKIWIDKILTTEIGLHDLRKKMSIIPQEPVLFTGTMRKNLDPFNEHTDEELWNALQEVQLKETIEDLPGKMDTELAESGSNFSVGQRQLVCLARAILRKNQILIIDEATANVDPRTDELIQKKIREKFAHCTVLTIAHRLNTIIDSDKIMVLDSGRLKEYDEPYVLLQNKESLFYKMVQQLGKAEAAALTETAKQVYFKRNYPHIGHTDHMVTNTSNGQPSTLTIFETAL
# [4] = biological target: Bile salt export pump (Homo sapiens, UniProt O95342); assay: Inhibition of human BSEP overexpressed in Sf9 cell membrane vesicles assessed as uptake of [3H]-taurocholate in presence of ATP measured after 15 to 20 mins by membrane vesicle transport assay; assay type: ADME, cell-based
# Sequence of Bile salt export pump (O95342 whole entry): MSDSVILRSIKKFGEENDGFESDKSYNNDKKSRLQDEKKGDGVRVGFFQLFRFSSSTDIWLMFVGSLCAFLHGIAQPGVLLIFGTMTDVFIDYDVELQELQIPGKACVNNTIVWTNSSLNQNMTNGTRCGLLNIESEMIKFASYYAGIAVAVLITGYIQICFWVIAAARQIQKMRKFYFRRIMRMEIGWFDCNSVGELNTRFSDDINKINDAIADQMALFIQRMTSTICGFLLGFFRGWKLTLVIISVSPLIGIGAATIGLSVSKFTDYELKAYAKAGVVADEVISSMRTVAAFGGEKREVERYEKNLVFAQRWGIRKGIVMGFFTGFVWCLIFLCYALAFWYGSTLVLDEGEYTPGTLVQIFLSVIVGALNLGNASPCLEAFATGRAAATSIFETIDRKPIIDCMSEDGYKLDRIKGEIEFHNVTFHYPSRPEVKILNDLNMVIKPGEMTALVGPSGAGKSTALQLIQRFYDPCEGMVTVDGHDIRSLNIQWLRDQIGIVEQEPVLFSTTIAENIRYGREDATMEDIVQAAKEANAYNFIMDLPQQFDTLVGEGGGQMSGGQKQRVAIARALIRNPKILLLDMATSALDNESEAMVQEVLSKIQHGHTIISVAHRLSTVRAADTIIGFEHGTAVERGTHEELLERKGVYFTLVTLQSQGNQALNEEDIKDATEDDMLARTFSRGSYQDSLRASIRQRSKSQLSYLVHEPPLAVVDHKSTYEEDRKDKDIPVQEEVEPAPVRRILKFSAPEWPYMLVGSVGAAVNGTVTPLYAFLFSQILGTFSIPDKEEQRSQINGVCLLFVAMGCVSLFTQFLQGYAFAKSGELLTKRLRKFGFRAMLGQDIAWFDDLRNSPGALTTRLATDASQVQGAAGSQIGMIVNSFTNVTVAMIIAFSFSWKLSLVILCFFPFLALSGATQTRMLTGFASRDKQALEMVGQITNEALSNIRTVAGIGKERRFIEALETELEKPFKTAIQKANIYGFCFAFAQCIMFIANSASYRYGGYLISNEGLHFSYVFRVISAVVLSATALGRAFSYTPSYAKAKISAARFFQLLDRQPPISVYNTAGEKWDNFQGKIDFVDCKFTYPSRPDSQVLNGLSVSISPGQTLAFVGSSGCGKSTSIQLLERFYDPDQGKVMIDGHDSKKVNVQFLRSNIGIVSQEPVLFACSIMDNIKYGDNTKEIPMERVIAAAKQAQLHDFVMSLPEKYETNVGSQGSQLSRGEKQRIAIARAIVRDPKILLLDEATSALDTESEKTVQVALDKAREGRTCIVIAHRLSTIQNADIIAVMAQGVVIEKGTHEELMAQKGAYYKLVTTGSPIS
# Sequence of ATP-binding cassette sub-family C member 2 (Q92887 whole entry): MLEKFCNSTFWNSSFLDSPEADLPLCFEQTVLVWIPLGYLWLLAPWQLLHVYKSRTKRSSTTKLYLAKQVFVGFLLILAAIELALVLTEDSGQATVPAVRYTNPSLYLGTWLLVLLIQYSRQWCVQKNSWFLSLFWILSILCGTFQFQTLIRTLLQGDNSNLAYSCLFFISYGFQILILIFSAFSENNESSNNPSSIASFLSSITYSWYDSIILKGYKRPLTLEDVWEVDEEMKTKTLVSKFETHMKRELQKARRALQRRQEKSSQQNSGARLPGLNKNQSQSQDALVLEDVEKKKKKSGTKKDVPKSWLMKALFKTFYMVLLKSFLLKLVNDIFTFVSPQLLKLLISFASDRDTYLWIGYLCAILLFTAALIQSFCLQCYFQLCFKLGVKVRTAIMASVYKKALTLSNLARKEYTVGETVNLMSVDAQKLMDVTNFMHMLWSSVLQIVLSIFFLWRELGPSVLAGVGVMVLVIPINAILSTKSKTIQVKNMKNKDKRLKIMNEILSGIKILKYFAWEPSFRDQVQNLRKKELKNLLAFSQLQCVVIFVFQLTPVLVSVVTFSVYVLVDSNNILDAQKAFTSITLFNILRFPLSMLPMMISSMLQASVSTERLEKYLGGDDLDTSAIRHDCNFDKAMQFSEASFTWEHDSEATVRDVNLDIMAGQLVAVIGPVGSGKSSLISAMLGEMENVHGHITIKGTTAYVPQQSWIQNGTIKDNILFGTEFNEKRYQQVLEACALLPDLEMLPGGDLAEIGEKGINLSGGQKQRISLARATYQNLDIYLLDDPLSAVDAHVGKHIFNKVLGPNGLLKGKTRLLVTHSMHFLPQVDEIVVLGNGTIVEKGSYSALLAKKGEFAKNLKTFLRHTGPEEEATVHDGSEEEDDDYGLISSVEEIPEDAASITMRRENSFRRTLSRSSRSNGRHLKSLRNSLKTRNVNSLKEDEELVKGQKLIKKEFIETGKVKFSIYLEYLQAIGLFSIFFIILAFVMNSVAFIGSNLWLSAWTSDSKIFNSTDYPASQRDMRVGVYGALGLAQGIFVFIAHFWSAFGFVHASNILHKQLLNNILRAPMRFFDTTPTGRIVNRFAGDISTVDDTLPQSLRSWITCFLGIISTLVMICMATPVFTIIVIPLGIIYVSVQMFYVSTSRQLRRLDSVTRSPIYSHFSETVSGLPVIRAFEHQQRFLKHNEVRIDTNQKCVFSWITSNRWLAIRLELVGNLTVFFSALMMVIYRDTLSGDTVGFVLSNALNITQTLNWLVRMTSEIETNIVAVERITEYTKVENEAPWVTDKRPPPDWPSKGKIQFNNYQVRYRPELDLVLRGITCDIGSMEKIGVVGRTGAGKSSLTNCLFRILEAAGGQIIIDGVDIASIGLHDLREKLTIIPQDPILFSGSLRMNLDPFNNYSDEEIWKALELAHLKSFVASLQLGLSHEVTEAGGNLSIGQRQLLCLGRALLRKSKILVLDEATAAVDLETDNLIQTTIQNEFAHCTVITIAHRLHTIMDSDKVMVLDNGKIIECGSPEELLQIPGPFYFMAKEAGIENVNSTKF
# Sequence of ATP-binding cassette sub-family C member 3 (O15438 whole entry): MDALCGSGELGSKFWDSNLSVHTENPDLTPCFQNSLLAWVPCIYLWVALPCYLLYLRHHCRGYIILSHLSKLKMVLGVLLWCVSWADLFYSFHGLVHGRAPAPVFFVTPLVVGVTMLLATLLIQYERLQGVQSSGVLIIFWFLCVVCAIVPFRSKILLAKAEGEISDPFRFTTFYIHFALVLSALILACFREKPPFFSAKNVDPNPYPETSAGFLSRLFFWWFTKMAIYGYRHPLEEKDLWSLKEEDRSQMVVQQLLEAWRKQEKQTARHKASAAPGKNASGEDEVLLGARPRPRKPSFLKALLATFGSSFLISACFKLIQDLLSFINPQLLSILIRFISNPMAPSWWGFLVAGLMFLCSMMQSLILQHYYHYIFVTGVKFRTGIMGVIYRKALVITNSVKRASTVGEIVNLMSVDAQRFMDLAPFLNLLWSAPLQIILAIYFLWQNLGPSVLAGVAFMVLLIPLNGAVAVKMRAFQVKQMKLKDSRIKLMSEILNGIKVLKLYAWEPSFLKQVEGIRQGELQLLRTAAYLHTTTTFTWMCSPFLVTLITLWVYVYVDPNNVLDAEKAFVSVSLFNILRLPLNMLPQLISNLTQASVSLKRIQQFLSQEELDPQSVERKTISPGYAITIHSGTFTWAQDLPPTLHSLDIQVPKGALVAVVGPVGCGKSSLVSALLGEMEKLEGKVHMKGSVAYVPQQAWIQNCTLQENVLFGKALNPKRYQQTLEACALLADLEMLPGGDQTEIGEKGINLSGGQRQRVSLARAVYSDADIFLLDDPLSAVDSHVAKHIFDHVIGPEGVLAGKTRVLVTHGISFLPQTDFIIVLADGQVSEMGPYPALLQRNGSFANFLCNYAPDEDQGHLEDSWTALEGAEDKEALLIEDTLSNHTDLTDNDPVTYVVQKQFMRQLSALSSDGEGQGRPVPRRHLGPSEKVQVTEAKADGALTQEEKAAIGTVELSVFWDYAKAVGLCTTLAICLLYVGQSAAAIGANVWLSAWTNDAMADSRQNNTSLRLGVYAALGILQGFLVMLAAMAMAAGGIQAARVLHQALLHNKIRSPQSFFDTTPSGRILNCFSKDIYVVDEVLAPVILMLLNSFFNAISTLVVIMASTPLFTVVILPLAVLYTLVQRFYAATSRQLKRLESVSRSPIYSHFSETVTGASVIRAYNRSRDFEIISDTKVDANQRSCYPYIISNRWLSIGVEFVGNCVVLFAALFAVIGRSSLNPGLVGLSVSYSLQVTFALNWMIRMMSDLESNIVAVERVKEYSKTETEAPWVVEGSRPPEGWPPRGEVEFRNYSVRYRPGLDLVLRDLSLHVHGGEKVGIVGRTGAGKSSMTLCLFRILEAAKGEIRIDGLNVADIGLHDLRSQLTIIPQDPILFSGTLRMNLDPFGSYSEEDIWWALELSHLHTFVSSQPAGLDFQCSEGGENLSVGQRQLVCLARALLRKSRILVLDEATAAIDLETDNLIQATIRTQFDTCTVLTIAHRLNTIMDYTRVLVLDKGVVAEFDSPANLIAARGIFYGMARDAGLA
SMILES,IC50 [1],IC50 [2],IC50 [3],IC50 [4]
COc1cc2nc(N3CCN(C(=O)C4CCCO4)CC3)nc(N)c2cc1OC (stereo not given) [TERAZOSIN],> 133 µM,> 133 µM,36.8 µM,> 133 µM
CCN(CC)CCOc1ccc2c(c1)C(=O)c1cc(OCCN(CC)CC)ccc1-2 [TILORONE],> 133 µM,> 133 µM,> 133 µM,> 133 µM
OCCN1C[C@H](O)[C@@H](O)[C@H](O)[C@H]1CO [MIGLITOL],> 133 µM,> 133 µM,> 133 µM,> 133 µM
C=CCCCCCCCCC(=O)O [UNDECYLENIC ACID],> 133 µM,> 133 µM,63.9 µM,> 133 µM
CC(C)NCC(O)COc1ccc(COCCOC(C)C)cc1 (stereo not given) [BISOPROLOL FUMARATE],> 133 µM,> 133 µM,> 133 µM,> 133 µM
c1ccc2c(c1)OCC(C1=NCCN1)O2 (stereo not given) [IDAZOXAN],> 133 µM,> 133 µM,> 133 µM,> 133 µM
NCc1ccc(S(N)(=O)=O)cc1 [MAFENIDE ACETATE],> 133 µM,> 133 µM,> 133 µM,> 133 µM
CCCCCCCCCC(=O)N[C@@H](Cc1c[nH]c2ccccc12)C(=O)N[C@H](CC(N)=O)C(=O)N[C@@H](CC(=O)O)C(=O)N[C@@H]1C(=O)NCC(=O)N[C@@H](CCCN)C(=O)N[C@@H](CC(=O)O)C(=O)N[C@H](C)C(=O)N[C@@H](CC(=O)O)C(=O)NCC(=O)N[C@H](CO)C(=O)N[C@@H]([C@H](C)CC(=O)O)C(=O)N[C@@H](CC(=O)c2ccccc2N)C(=O)O[C@@H]1C [DAPTOMYCIN],29.1 µM,> 133 µM,> 133 µM,> 133 µM
CCCCN1CCCCC1C(=O)Nc1c(C)cccc1C (stereo not given) [BUPIVACAINE HYDROCHLORIDE],> 133 µM,> 133 µM,> 133 µM,> 133 µM
CCC(=O)O[C@@H]1CC(=O)O[C@H](C)C/C=C/C=C/[C@H](O)[C@H](C)C[C@H](CC=O)[C@H](O[C@@H]2O[C@H](C)[C@@H](O[C@H]3C[C@@](C)(O)[C@@H](OC(=O)CC)[C@H](C)O3)[C@H](N(C)C)[C@H]2O)[C@H]1OC [MIDECAMYCIN],> 133 µM,> 133 µM,> 133 µM,14.3 µM
CCC[C@H](N[C@@H](C)C(=O)N1[C@H](C(=O)O)C[C@@H]2CCCC[C@@H]21)C(=O)OCC [PERINDOPRIL ERBUMINE],> 133 µM,> 133 µM,> 133 µM,> 133 µM
OC(CNCC(O)C1CCc2cc(F)ccc2O1)C1CCc2cc(F)ccc2O1 (stereo not given) [NEBIVOLOL HYDROCHLORIDE],> 133 µM,> 133 µM,> 133 µM,> 133 µM
CC[C@H]1OC(=O)[C@H](C)[C@@H](O[C@H]2C[C@@](C)(OC)[C@@H](O)[C@H](C)O2)[C@H](C)[C@@H](O[C@@H]2O[C@H](C)C[C@H](N(C)C)[C@H]2O)[C@](C)(OC)C[C@@H](C)C(=O)[C@H](C)[C@@H](O)[C@]1(C)O [CLARITHROMYCIN],> 133 µM,> 133 µM,> 133 µM,> 133 µM
CC(C)OC(=O)OCOP(=O)(CO[C@H](C)Cn1cnc2c(N)ncnc21)OCOC(=O)OC(C)C [TENOFOVIR DISOPROXIL FUMARATE],> 133 µM,> 133 µM,> 133 µM,> 133 µM
C[C@@](Cc1ccc(O)c(O)c1)(NN)C(=O)O [CARBIDOPA ANHYDROUS],> 133 µM,> 133 µM,> 133 µM,> 133 µM
O=C(NC[C@H]1CN(c2ccc(N3CCOCC3=O)cc2)C(=O)O1)c1ccc(Cl)s1 [RIVAROXABAN],> 133 µM,> 133 µM,> 133 µM,> 133 µM
N=C(N)c1ccc(OCCCCCOc2ccc(C(=N)N)cc2)cc1 [PENTAMIDINE],> 133 µM,> 133 µM,> 133 µM,> 133 µM
CCOC(=O)[N-]c1cn(N2CCOCC2)n[o+]1 [MOLSIDOMINE],> 133 µM,> 133 µM,> 133 µM,> 133 µM

SMILES,IC50 [1],IC50 [2],IC50 [3],IC50 [4]
CC(=O)CCCCn1c(=O)c2c(ncn2C)n(C)c1=O [PENTOXIFYLLINE],> 133 µM,> 133 µM,> 133 µM,> 133 µM
NCC1O[C@H](O[C@H]2[C@@H](O)[C@H](O[C@H]3[C@H](O)[C@@H](N)C[C@@H](N)[C@@H]3O[C@H]3O[C@H](CN)[C@@H](O)[C@H](O)[C@H]3N)O[C@@H]2CO)[C@H](N)[C@@H](O)[C@@H]1O (stereo not given in full),> 133 µM,> 133 µM,> 133 µM,> 133 µM
CN1CCN(c2c(F)cc3c(=O)c(C(=O)O)cn(CCF)c3c2F)CC1 [FLEROXACIN],> 133 µM,> 133 µM,> 133 µM,> 133 µM
CN(C)C(=O)Oc1cccc([N+](C)(C)C)c1 [NEOSTIGMINE],> 133 µM,> 133 µM,> 133 µM,> 133 µM
Cc1ccnc2c1NC(=O)c1cccnc1N2C1CC1 [NEVIRAPINE],> 133 µM,> 133 µM,> 133 µM,> 133 µM
CN1CCN(C(=O)OC2c3nccnc3C(=O)N2c2ccc(Cl)cn2)CC1 (stereo not given) [ZOPICLONE],> 133 µM,> 133 µM,> 133 µM,> 133 µM
O=C(c1ccc(F)cc1)C1CCN(CCn2c(=O)[nH]c3ccccc3c2=O)CC1 [KETANSERIN],> 133 µM,> 133 µM,> 133 µM,> 133 µM
COc1ccc2cc1Oc1cc3c(cc1OC)CC[N+](C)(C)[C@H]3Cc1ccc(cc1)Oc1c(OC)c(OC)cc3c1[C@@H](C2)[N+](C)(C)CC3 [METOCURINE],> 133 µM,> 133 µM,> 133 µM,> 133 µM
C#C[C@]1(O)CC[C@H]2[C@@H]3CCc4cc(O)ccc4[C@H]3CC[C@@]21C [ETHINYL ESTRADIOL],> 133 µM,> 133 µM,> 133 µM,14 µM
CC(C)[C@H](N)C(=O)OCCOCn1cnc2c(=O)[nH]c(N)nc21 [VALACYCLOVIR HYDROCHLORIDE],> 133 µM,> 133 µM,> 133 µM,> 133 µM
COc1cc(Cc2cnc(N)nc2N)cc(OC)c1OC [TRIMETHOPRIM],> 133 µM,> 133 µM,> 133 µM,> 133 µM
CC(=O)Oc1ccccc1C(=O)O [ASPIRIN],> 133 µM,> 133 µM,> 133 µM,> 133 µM
CC(C)NCC(O)c1ccc(NS(C)(=O)=O)cc1 (stereo not given) [SOTALOL],> 133 µM,> 133 µM,> 133 µM,> 133 µM
CCN(CC)CCNC(=O)c1ccc(NC(C)=O)cc1 [ACECAINIDE],> 133 µM,> 133 µM,> 133 µM,> 133 µM
NC(=O)c1ncn([C@@H]2O[C@H](CO)[C@@H](O)[C@H]2O)n1 [RIBAVIRIN],> 133 µM,> 133 µM,> 133 µM,> 133 µM
Nc1ccn([C@@H]2O[C@H](CO)[C@@H](O)C2(F)F)c(=O)n1 [GEMCITABINE HYDROCHLORIDE],> 133 µM,> 133 µM,> 133 µM,> 133 µM
O=C(O[C@@H]1C[C@@H]2C[C@H]3C[C@H](C1)N2CC3=O)c1c[nH]c2ccccc12,> 133 µM,> 133 µM,> 133 µM,> 133 µM
